Activity calls are given as the source filed them. No cut-off for these calls is given here.

These results are taken from ChEMBL document CHEMBL3085665, “Gallic acid is the major component of grape seed extract that inhibits amyloid fibril formation” (Bioorg Med Chem Lett, 2013).

Data set [1] has as its target Amyloid-beta precursor protein (Homo sapiens) (UniProt P05067). Briefly: Inhibition of amyloid beta (1 to 40) (unknown origin) aggregation at 1:0.1 to 1:2 protein to compound molar ratio after 20 hrs by transmission electron microscopic analysis.
For data set [2] the target is unchanged. Briefly: Inhibition of amyloid beta (1 to 40) (unknown origin) aggregation at 1:0.1 to 1:2 protein to compound molar ratio up to 10 hrs by thioflavin T fluorescence assay.
In another data set the test system is PC-12. Briefly: Effect on RCM-kappa-casein-induced cytotoxicity against rat PC12 cells at 1:0.1 to 1:0.5 protein to compound molar ratio after 48 hrs by MTT assay. The data set is classed as functional, cell-based. A general note: Tetrazolium dyes change colour on reduction, which living cells bring about.
Data set [3] in a line: Effect on RCM-kappa-casein-induced cytotoxicity against rat PC12 cells assessed as increase in cell viability at 1:2 protein to compound molar ratio after 48 hrs by MTT assay relative to control. Type of data set: functional, PC-12.
Data set [4] can be described thus: Reduction in RCM-kappa-casein-induced cytotoxicity against rat PC12 cells after 48 hrs by MTT assay. The data set is classed as functional, cell-based. Conditions: PC-12.
The nature of data set [5]: Cytotoxicity against rat PC12 cells assessed as cell viability at 5 uM after 48 hrs by MTT assay. Type of data set: cell-based. Conditions: pc-12, 48 h.
Data set [6] is filed under the species Homo sapiens. Description: Binding affinity to reduced carboxymethylated-kappa-casein (unknown origin) at 1:2 protein to compound molar ratio after 20 hrs by far-UV-CD spectroscopic analysis.
The species entered for data set [7] is Homo sapiens. Briefly: Inhibition of reduced carboxymethylated-kappa-casein (unknown origin) conversion to amyloid fibrils assessed as decrease in number of long, unbranched and mature amyloid fibrils at 1:2 protein to compound molar ratio after 1000 mins by transmission electron microscopic analysis.
For data set [8], the species on record is Homo sapiens. Briefly: Inhibition of reduced carboxymethylated-kappa-casein (unknown origin) conversion to amyloid fibrils at 1:0.1 protein to compound molar ratio after 1000 mins by thioflavin T fluorescence assay relative to control.
For data set [9], the species on record is Homo sapiens. Briefly: Inhibition of reduced carboxymethylated-kappa-casein (unknown origin) conversion to amyloid fibrils at 1:0.5 protein to compound molar ratio after 1000 mins by thioflavin T fluorescence assay relative to control.
Data set [10] is filed under the species Homo sapiens. Description: Inhibition of reduced carboxymethylated-kappa-casein (unknown origin) conversion to amyloid fibrils at 1:1 protein to compound molar ratio after 1000 mins by thioflavin T fluorescence assay relative to control.
Data set [11] is described as follows: (§1) Inhibition of reduced carboxymethylated-kappa-casein (unknown origin) conversion to amyloid fibrils after 1000 mins by thioflavin T fluorescence assay. The arrangement: species or system Homo sapiens.
For data set [12], the species on record is Homo sapiens. The data set is described as §1.
The species entered for data set [13] is Homo sapiens. Briefly: Inhibition of reduced carboxymethylated-kappa-casein (unknown origin) conversion to amyloid fibrils at 1:2 protein to compound molar ratio after 1000 mins by thioflavin T fluorescence assay relative to control.
The species named for data set [14] is Homo sapiens. Description: Inhibition of reduced carboxymethylated-kappa-casein (unknown origin) conversion to amyloid fibrils at 0.1:1 to 2:1 compound to protein molar ratio after 1000 mins by thioflavin T fluorescence assay.

Chain of Amyloid-beta precursor protein (Homo sapiens) (P05067 whole entry): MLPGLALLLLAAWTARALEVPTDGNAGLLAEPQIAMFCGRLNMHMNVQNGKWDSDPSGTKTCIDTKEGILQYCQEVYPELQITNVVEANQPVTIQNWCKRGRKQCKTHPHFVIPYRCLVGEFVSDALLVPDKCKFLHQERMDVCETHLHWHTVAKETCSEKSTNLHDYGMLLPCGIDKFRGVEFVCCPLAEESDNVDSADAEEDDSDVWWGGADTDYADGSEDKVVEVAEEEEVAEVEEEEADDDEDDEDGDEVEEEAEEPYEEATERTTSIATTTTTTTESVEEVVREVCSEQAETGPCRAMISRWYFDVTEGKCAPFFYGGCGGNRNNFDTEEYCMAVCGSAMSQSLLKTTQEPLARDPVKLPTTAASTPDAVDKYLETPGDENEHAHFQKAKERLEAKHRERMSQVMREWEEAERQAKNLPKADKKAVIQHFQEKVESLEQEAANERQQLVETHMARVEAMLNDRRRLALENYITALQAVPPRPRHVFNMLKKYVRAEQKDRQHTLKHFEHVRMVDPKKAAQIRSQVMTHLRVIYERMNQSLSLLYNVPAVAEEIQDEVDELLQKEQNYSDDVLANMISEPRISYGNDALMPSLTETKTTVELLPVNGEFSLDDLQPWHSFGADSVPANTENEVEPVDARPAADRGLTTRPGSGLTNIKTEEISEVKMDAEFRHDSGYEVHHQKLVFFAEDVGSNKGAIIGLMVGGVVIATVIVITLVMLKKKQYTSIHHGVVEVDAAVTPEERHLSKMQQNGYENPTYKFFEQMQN

On to `O=C(O)c1cc(O)c(O)c(O)c1` [GALLIC ACID], for which the inhibition result (in data set [1]; in [2]; in the data set listed under Homo sapiens [7]) was “Active” each time. In addition, the outcome with PC-12 was inactive. Moreover, the Activity in [3] is 88%; in [4], “Dose-dependent effect”; in data set [5], “Non-toxic”. Moreover, the outcome in the data set filed under Homo sapiens [6] was Active. Also, the inhibition in the data set filed under Homo sapiens [8] is 3%; in the data set listed under Homo sapiens [9], 54%; in the data set filed under Homo sapiens [10], 87%; in the data set listed under Homo sapiens [12], “Dose-dependent effect”; in the data set filed under Homo sapiens [13], 98%. This compound registered an IC50 in data set [11] of 7.7 µM.

Consider `C[C@@H]1O[C@@H](OC[C@H]2O[C@@H](Oc3cc4c(O)cc(O)cc4[o+]c3-c3ccc(O)c(O)c3)[C@H](O)[C@@H](O)[C@@H]2O)[C@H](O)[C@H](O)[C@H]1O`, for which the inhibition in the data set filed under Homo sapiens [13] was 54%.

`Oc1cc(O)c2c(c1)O[C@H](c1ccc(O)c(O)c1)[C@H](O)C2`: in the data set filed under Homo sapiens [14], the inhibition result is “inactive”.

Turning to `Oc1cc(O)c2c(c1)OC(c1ccc(O)c(O)c1)C(O)C2` (configuration not stated), the inhibition entry in the data set listed under Homo sapiens [14] was “inactive”.

As usually defined, the inhibition is how much of the control response was suppressed. As a reminder, the IC50 is the concentration at which inhibition is half-maximal. High values mean weaker potency in that assay, low ones greater potency in that assay.
